Results as given in patent US20240398828A1, “HETERO-ATOM CONTAINING COMPOUNDS AND USES THEREOF” (Kumquat Biosciences Inc., priority 2021, published 2024).

Legend:
PTPN2 (i.e., TC-PTP) = biological target: T1, PTPN2 (i.e., TC-PTP) (Homo sapiens, UniProt P17706); experiment: Phosphatase activity assay (DiFMUP substrate), PTPN2; type: biochemical; conditions: compounds binned ≤1 uM or >1 uM
T1 sequence (P17706 1-415): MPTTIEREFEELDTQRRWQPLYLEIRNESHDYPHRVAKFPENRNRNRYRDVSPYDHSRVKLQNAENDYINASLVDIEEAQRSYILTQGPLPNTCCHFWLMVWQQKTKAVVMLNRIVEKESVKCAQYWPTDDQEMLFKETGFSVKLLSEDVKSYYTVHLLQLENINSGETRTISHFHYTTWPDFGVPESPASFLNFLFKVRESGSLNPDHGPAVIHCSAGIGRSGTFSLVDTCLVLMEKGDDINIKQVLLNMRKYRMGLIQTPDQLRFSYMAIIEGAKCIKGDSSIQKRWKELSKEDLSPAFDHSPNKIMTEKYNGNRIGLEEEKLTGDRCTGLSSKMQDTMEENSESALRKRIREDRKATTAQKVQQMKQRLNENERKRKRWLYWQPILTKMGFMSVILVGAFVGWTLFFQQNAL
Outline: (§1)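 Enzyme (e.g. PTPN2 0.025 ng/ul) mixed about 2 min with compound at 10 serial concentrations in 50 mM HEPES pH 7.5, 150 mM NaCl, 0.5 mM EDTA, 1 mM DTT, 0.001% Tween-20 at room temperature. DiFMUP added at each enzyme's Km (about 45 μM for PTPN2). DiFMU fluorescence (ex 360/em 450 nm) followed 15-30 min; IC50 from 4-parameter fit of rates.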

PTPN1 (i.e., PTP1B) = biological target: T2, PTPN1 (i.e., PTP1B) (Homo sapiens, UniProt P18031); experiment: Phosphatase activity assay (DiFMUP substrate), PTP1B; type: biochemical; conditions: compounds binned ≤1 uM or >1 uM
T2 sequence (P18031 1-435): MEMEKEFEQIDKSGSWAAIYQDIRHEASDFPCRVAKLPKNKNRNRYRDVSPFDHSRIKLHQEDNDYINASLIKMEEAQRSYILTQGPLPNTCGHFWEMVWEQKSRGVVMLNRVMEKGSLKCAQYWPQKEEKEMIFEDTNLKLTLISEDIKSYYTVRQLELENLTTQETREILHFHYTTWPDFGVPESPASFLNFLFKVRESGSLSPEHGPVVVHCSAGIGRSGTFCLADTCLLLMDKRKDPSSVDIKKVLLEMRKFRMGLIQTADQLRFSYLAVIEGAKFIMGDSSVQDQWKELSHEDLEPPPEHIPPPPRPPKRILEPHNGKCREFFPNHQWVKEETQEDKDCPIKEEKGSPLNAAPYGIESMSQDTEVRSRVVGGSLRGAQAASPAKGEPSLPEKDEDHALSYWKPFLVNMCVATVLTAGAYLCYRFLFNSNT
Outline: as §1

SMILES	IC50 (PTPN2 (i.e., TC-PTP))	IC50 (PTPN1 (i.e., PTP1B))
CC(C)CCS(=O)(=O)N1CC=C(c2ccc(O)c(N3CC(=O)NS3(=O)=O)c2F)C1 [Compound 338, 5-(2-fluoro-6-hydroxy-3-(1-(isopentylsulfonyl)-2,5-dihydro-1H-pyrrol-3-yl)phenyl)-1,2,5-thiadiazolidin-3-one 1,1-dioxide]	≤ 1000 nM	≤ 1000 nM
CN1CC2(C1)CN(c1cc(-c3ccc(O)c(N4CC(=O)NS4(=O)=O)c3F)[nH]n1)C2 [Compound 252, 5-(2-fluoro-6-hydroxy-3-(3-(6-methyl-2,6-diazaspiro[3.3]heptan-2-yl)-1H-pyrazol-5-yl)phenyl)-1,2,5-thiadiazolidin-3-one 1,1-dioxide]	≤ 1000 nM	≤ 1000 nM
O=C1CN(c2c(O)ccc(C3=CCSCC3)c2F)S(=O)(=O)N1 [Compound 294, 5-(3-(3,6-dihydro-2H-thiopyran-4-yl)-2-fluoro-6-hydroxyphenyl)-1,2,5-thiadiazolidin-3-one 1,1-dioxide]	≤ 1000 nM	≤ 1000 nM
O=C1CN(c2c(O)ccc(-c3cc(N4CCCC4)n[nH]3)c2F)S(=O)(=O)N1 [Compound 343, 5-(2-fluoro-6-hydroxy-3-(3-(pyrrolidin-1-yl)-1H-pyrazol-5-yl)phenyl)-1,2,5-thiadiazolidin-3-one 1,1-dioxide]	≤ 1000 nM	≤ 1000 nM
CN1CCC(n2cc(-c3ccc(O)c(N4CC(=O)NS4(=O)=O)c3F)cn2)CC1 [Compound 259, 5-(2-fluoro-6-hydroxy-3-(1-(1-methylpiperidin-4-yl)-1H-pyrazol-4-yl)phenyl)-1,2,5-thiadiazolidin-3-one 1,1-dioxide]	≤ 1000 nM	≤ 1000 nM
N#Cc1ccc(-n2cnc(-c3ccc(O)c(N4CC(=O)NS4(=O)=O)c3F)c2)cc1F [Compound 287, 4-(4-(3-(1,1-dioxido-4-oxo-1,2,5-thiadiazolidin-2-yl)-2-fluoro-4-hydroxyphenyl)-1H-imidazol-1-yl)-2-fluorobenzonitrile]	≤ 1000 nM	≤ 1000 nM
CN(C)c1ccc(-c2ccc(O)c(N3CC(=O)NS3(=O)=O)c2F)cn1 [Compound 208, 5-(3-(6-(dimethylamino)pyridin-3-yl)-2-fluoro-6-hydroxyphenyl)-1,2,5-thiadiazolidin-3-one 1,1-dioxide]	≤ 1000 nM	≤ 1000 nM
N#CC1(Cn2cc(-c3ccc(O)c(N4CC(=O)NS4(=O)=O)c3F)cn2)CCC1 [Compound 313, 1-((4-(3-(1,1-dioxido-4-oxo-1,2,5-thiadiazolidin-2-yl)-2-fluoro-4-hydroxyphenyl)-1H-pyrazol-1-yl)methyl)cyclobutane-1-carbonitrile]	≤ 1000 nM	≤ 1000 nM
CC(C)CCn1cc(-c2cc(O)cc(N3CC(=O)NS3(=O)=O)c2F)cn1 [Compound 221, 5-(2-fluoro-5-hydroxy-3-(1-isopentyl-1H-pyrazol-4-yl)phenyl)-1,2,5-thiadiazolidin-3-one 1,1-dioxide]	> 1000 nM	> 1000 nM
CC(C)CNc1ccc(-c2ccc(O)c(N3CC(=O)NS3(=O)=O)c2F)cc1 [Compound 193, 5-(2-fluoro-4-hydroxy-4′-(isobutylamino)-[1,1′-biphenyl]-3-yl)-1,2,5-thiadiazolidin-3-one 1,1-dioxide]	≤ 1000 nM	≤ 1000 nM
O=C1CN(c2c(O)ccc(-c3cccc(NS(=O)(=O)C4CC4)c3)c2F)S(=O)(=O)N1 [Compound 449, N-(3′-(1,1-dioxido-4-oxo-1,2,5-thiadiazolidin-2-yl)-2′-fluoro-4′-hydroxy-[1,1′-biphenyl]-3-yl)cyclopropanesulfonamide]	≤ 1000 nM	≤ 1000 nM
Cc1nc(-c2ccc(O)c(N3CC(=O)NS3(=O)=O)c2F)cn1C [Compound 199, 5-(3-(1,2-dimethyl-1H-imidazol-4-yl)-2-fluoro-6-hydroxyphenyl)-1,2,5-thiadiazolidin-3-one 1,1-dioxide]	≤ 1000 nM	≤ 1000 nM
N#Cc1cc(-c2ccc(O)c(N3CC(=O)NS3(=O)=O)c2F)[nH]n1 [Compound 439, 5-(3-(1,1-dioxido-4-oxo-1,2,5-thiadiazolidin-2-yl)-2-fluoro-4-hydroxyphenyl)-1H-pyrazole-3-carbonitrile]	≤ 1000 nM	≤ 1000 nM
CN1CCc2cc(-c3ccc(O)c(N4CC(=O)NS4(=O)=O)c3F)ccc2C1 [Compound 109, 5-(2-fluoro-6-hydroxy-3-(2-methyl-1,2,3,4-tetrahydroisoquinolin-6-yl)phenyl)-1,2,5-thiadiazolidin-3-one 1,1-dioxide]	≤ 1000 nM	≤ 1000 nM
CC(F)(F)n1cc(-c2ccc(O)c(N3CC(=O)NS3(=O)=O)c2F)cn1 [Compound 516, 5-(3-(1-(1,1-difluoroethyl)-1H-pyrazol-4-yl)-2-fluoro-6-hydroxyphenyl)-1,2,5-thiadiazolidin-3-one 1,1-dioxide]	≤ 1000 nM	≤ 1000 nM
O=C1CN(c2c(O)ccc(-c3cn(C4CCCCC4)nc3F)c2F)S(=O)(=O)N1 [Compound 469, 5-(3-(1-cyclohexyl-3-fluoro-1H-pyrazol-4-yl)-2-fluoro-6-hydroxyphenyl)-1,2,5-thiadiazolidin-3-one 1,1-dioxide]	≤ 1000 nM	≤ 1000 nM
O=C1CN(c2c(O)ccc(-c3cn(C4CCC(F)(F)CC4)cn3)c2F)S(=O)(=O)N1 [Compound 268, 5-(3-(1-(4,4-difluorocyclohexyl)-1H-imidazol-4-yl)-2-fluoro-6-hydroxyphenyl)-1,2,5-thiadiazolidin-3-one 1,1-dioxide]	≤ 1000 nM	≤ 1000 nM
O=C1CN(c2c(O)ccc(-c3cn(CCC(F)F)nc3F)c2F)S(=O)(=O)N1 [Compound 530, 5-(3-(1-(3,3-difluoropropyl)-3-fluoro-1H-pyrazol-4-yl)-2-fluoro-6-hydroxyphenyl)-1,2,5-thiadiazolidin-3-one 1,1-dioxide]	≤ 1000 nM	≤ 1000 nM
O=C1CN(c2c(O)ccc(-c3cnn(Cc4ccccc4)c3)c2F)S(=O)(=O)N1 [Compound 212, 5-(3-(1-benzyl-1H-pyrazol-4-yl)-2-fluoro-6-hydroxyphenyl)-1,2,5-thiadiazolidin-3-one 1,1-dioxide]	≤ 1000 nM	≤ 1000 nM
O=C1CN(c2c(O)ccc(-c3cc(C4CC4C(F)F)n[nH]3)c2F)S(=O)(=O)N1 (stereo not shown) [Compound 492, 5-(3-(3-(2-(difluoromethyl)cyclopropyl)-1H-pyrazol-5-yl)-2-fluoro-6-hydroxyphenyl)-1,2,5-thiadiazolidin-3-one 1,1-dioxide]	≤ 1000 nM	≤ 1000 nM
O=C1CC(c2c(O)ccc(-c3cn(CC4CCCCC4)cn3)c2F)S(=O)(=O)N1 (stereo not shown) [Compound 419, 5-(3-(1-(cyclohexylmethyl)-1H-imidazol-4-yl)-2-fluoro-6-hydroxyphenyl)isothiazolidin-3-one 1,1-dioxide]	> 1000 nM	> 1000 nM
O=C1CN(c2c(O)ccc(C3CCN(S(=O)(=O)C4CC4)CC3)c2F)S(=O)(=O)N1 [Compound 285, 5-(3-(1-(cyclopropylsulfonyl)piperidin-4-yl)-2-fluoro-6-hydroxyphenyl)-1,2,5-thiadiazolidin-3-one 1,1-dioxide]	≤ 1000 nM	≤ 1000 nM
O=C1CN(c2c(O)ccc(-c3cnn(C4CC4(F)F)c3)c2F)S(=O)(=O)N1 (stereo not shown) [Compound 424, 5-(3-(1-(2,2-difluorocyclopropyl)-1H-pyrazol-4-yl)-2-fluoro-6-hydroxyphenyl)-1,2,5-thiadiazolidin-3-one 1,1-dioxide]	≤ 1000 nM	≤ 1000 nM
Cc1cnn(-c2ccc(O)c(N3CC(=O)NS3(=O)=O)c2F)c1 [Compound 386, 5-(2-fluoro-6-hydroxy-3-(4-methyl-1H-pyrazol-1-yl)phenyl)-1,2,5-thiadiazolidin-3-one 1,1-dioxide]	≤ 1000 nM	≤ 1000 nM
O=C1CN(c2c(O)ccc(-c3cc(C(=O)N4CCOCC4)n[nH]3)c2F)S(=O)(=O)N1 [Compound 336, 5-(2-fluoro-6-hydroxy-3-(3-(morpholine-4-carbonyl)-1H-pyrazol-5-yl)phenyl)-1,2,5-thiadiazolidin-3-one 1,1-dioxide]	≤ 1000 nM	≤ 1000 nM
O=C1CN(c2c(O)ccc(-c3n[nH]c4ccccc34)c2F)S(=O)(=O)N1 [Compound 168, 5-(2-fluoro-6-hydroxy-3-(1H-indazol-3-yl)phenyl)-1,2,5-thiadiazolidin-3-one 1,1-dioxide]	> 1000 nM	> 1000 nM
